For assay [1], the target named is Casein kinase II subunit alpha' (Homo sapiens, UniProt P19784). As to the kind of experiment: Inhibition of GST-tagged full-length purified human CK2a2 using RRRDDDSDDD substrate incubated for 120 mins in presence of [33P]ATP by scintillation counting based biochemical assay.
Assay [2] concerns the target T1, PAS domain-containing serine/threonine-protein kinase (Homo sapiens, UniProt Q96RG2). As to the kind of experiment: Inhibition of human recombinant PASK using Ulight-peptide substrate incubated for 2 hrs by TR-FRET assay.
The target of assay [3] is T1, PAS domain-containing serine/threonine-protein kinase. The assay can be described thus: Inhibition of N-terminal GST-tagged human recombinant PASK kinase domain (879 to 1323 residues) expressed in insect cells using MBP protein substrate incubated for 120 mins in presence of [33P]ATP by scintillation counting based radiochemical assay.

Chain of Casein kinase II subunit alpha' (P19784 whole entry, the tested form may be a part): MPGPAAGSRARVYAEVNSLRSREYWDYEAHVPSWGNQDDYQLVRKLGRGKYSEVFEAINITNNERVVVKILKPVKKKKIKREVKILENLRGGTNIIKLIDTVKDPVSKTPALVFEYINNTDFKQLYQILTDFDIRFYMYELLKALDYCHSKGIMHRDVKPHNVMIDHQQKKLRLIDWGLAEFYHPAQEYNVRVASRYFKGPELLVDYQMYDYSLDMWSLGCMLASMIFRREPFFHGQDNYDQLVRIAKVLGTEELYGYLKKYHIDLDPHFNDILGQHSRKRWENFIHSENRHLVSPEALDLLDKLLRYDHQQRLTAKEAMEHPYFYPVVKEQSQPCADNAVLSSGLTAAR
T1 sequence (Q96RG2 whole entry, the tested form may be a part): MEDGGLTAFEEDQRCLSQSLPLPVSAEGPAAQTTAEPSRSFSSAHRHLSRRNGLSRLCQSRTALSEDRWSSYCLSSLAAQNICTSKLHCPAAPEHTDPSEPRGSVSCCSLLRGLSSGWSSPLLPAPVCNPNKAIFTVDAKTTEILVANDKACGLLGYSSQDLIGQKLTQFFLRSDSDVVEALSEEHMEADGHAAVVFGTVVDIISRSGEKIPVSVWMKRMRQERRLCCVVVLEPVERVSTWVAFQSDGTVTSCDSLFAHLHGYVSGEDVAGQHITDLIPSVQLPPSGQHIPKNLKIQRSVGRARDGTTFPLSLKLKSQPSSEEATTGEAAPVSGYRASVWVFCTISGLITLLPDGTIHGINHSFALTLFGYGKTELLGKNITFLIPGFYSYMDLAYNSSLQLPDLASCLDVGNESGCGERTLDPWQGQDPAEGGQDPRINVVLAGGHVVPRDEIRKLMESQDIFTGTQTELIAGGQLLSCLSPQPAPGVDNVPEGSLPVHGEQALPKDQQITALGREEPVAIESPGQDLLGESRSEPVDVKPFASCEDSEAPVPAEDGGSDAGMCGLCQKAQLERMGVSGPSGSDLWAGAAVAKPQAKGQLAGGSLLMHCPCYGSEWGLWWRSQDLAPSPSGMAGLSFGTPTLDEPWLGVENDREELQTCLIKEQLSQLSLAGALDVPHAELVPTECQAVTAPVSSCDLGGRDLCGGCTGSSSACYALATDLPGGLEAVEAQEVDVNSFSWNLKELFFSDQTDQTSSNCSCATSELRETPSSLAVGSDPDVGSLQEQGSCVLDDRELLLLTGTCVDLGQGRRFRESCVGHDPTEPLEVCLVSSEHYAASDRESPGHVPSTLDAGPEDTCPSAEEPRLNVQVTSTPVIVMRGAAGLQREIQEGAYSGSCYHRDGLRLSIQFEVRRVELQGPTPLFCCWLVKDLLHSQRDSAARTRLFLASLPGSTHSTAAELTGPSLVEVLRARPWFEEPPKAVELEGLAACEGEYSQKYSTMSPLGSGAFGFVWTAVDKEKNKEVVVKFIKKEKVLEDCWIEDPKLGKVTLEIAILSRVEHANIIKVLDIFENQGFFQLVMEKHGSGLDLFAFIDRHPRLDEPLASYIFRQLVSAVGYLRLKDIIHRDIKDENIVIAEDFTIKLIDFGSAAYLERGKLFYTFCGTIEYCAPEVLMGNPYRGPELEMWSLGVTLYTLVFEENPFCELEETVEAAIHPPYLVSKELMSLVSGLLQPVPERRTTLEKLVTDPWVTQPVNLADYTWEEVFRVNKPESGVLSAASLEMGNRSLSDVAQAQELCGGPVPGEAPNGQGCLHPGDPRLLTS

One may read the IC50 as the concentration at which inhibition is half-maximal. Turning to `COc1c(-c2cc(=O)n3ncc(-c4ccccn4)c3[nH]2)ccc2[nH]nnc12`, the IC50 in assay [1], in assay [2] and in assay [3] was ≤ 10 µM each time.

Regarding `Cc1nn2c(=O)cc(-c3ccc4c(c3)OCCO4)[nH]c2c1-c1cccnc1`, the IC50 in assay [1] is ≤ 10 µM.

Regarding `CCCNC(=O)c1c(N)nn2c(=O)cc(-c3ccc4[nH]nnc4c3)[nH]c12`, the IC50 in assay [1], in assay [2] and in assay [3] was ≤ 10 µM each time.

Regarding `O=c1cc(-c2ccc3c(c2)CCO3)[nH]c2c(-c3cccnc3)c(O)nn12`, the half-inhibitory concentration (IC50) in assay [1], in assay [2] and in assay [3] was ≤ 10 µM throughout.

Consider `Nc1nn2c(=O)cc(-c3ccc4[nH]nnc4c3)[nH]c2c1-c1ccc(Cl)cc1`, for which the 50% inhibitory concentration (IC50) in assay [1], in assay [2] and in assay [3] was ≤ 10 µM in each case.

In the case of `COc1ccc(-c2cc(=O)n3ncc(-c4ccccn4)c3[nH]2)cc1OC`, the half-inhibitory concentration (IC50) in assay [1], in assay [2] and in assay [3] was ≤ 10 µM each time.

With `N#Cc1cnn2c(=O)cc(-c3ccc4c(c3)OCCO4)[nH]c12`, the half-inhibitory concentration (IC50) in assay [1], in assay [2] and in assay [3] was ≤ 10 µM in each case.

Turning to `O=c1cc(-c2ccc3c(c2)CCO3)[nH]c2c(-c3cccnc3)cnn12`, the IC50 in assay [1], in assay [2] and in assay [3] was ≤ 10 µM each time.

In the case of `NC(=O)c1cnn2c(=O)cc(-c3ccc4c(c3)OCCO4)[nH]c12`, the IC50 in assay [1], in assay [2] and in assay [3] was ≤ 10 µM in each case.

With `Cc1nn2c(=O)cc(-c3ccc4ncccc4c3)[nH]c2c1Cc1ccccc1`, the 50% inhibitory concentration (IC50) in assay [1], in assay [2] and in assay [3] was ≤ 10 µM in each case.

Turning to `O=c1cc(-c2ccc(-c3ncco3)cc2)[nH]c2c(-c3ccccn3)cnn12`, the IC50 in assay [1] was ≥ 10 µM; in assay [2], ≤ 10 µM; in assay [3], ≤ 10 µM.

As to `COc1ccc(-c2cc(=O)n3ncc(-c4cccnc4)c3[nH]2)cc1`, the IC50 in assay [1], in assay [2] and in assay [3] was ≤ 10 µM each time.

Take `COc1ccc(-c2cc(=O)n3ncc(-c4ccccn4)c3[nH]2)cc1`: in assay [1], the half-inhibitory concentration (IC50) is ≤ 10 µM.

For the compound `COc1ccc2c(c1)CCc1c-2[nH]c2c(-c3ccccn3)cnn2c1=O`, the IC50 in assay [1], in assay [2] and in assay [3] was ≤ 10 µM each time.

For the compound `Cc1nn2c(=O)cc(-c3ccc4c(c3)OCCO4)[nH]c2c1-c1ccc(F)cc1`, the IC50 in assay [1], in assay [2] and in assay [3] was ≤ 10 µM each time.

`COc1c(-c2cc(=O)n3nc(O)c(-c4ccccn4)c3[nH]2)ccc2c1OCO2`: the IC50 in assay [1], in assay [2] and in assay [3] was ≤ 10 µM in each case.

On to `O=c1cc(-c2ccc3c(c2)OCO3)[nH]c2c(-c3ncccc3F)cnn12`, for which the IC50 in assay [1], in assay [2] and in assay [3] was ≤ 10 µM in each case.

As to `Cc1nn2c(=O)cc(-c3ccc4c(c3)OCO4)[nH]c2c1Cc1ccc(Cl)cc1`, the IC50 in assay [1], in assay [2] and in assay [3] was ≤ 10 µM each time.

For `Nc1nn2c(=O)cc(-c3ccc(Cl)cc3F)[nH]c2c1-c1ccccn1`, the IC50 in assay [1], in assay [2] and in assay [3] was ≤ 10 µM each time.

On to `Cc1nn2c(=O)cc(-c3ccc4c(c3)OCO4)[nH]c2c1-c1ccccc1`, for which, in assay [1], the 50% inhibitory concentration (IC50) was ≤ 10 µM.

For the compound `CCCNC(=O)c1cnn2c(=O)cc(-c3ccc4c(c3)OCCO4)[nH]c12`, the IC50 in assay [1], in assay [2] and in assay [3] was ≤ 10 µM in each case.

Turning to `CCCc1c(C)nn2c(=O)cc(-c3ccc(OC)cc3)[nH]c12`, the IC50 was ≥ 10 µM in assay [1], ≤ 10 µM in assay [2] and ≤ 10 µM in assay [3].

For `Nc1nn2c(=O)cc(-c3ccc(Cl)cc3)[nH]c2c1-c1ccccn1`, the IC50 in assay [1], in assay [2] and in assay [3] was ≤ 10 µM throughout.

Turning to `O=c1cc(-c2ccc3occc3c2)[nH]c2c(-c3ccccn3)c(O)nn12`, the 50% inhibitory concentration (IC50) in assay [1], in assay [2] and in assay [3] was ≤ 10 µM throughout.

In the case of `CN1CCN(C(=O)c2cnn3c(=O)cc(-c4ccc5c(c4)OCCO5)[nH]c23)CC1`, the IC50 in assay [2] and in assay [3] was ≤ 10 µM throughout.

For the compound `O=c1cc(-c2ccc3c(c2)OCCO3)[nH]c2c(-c3ccc(N4CCCCC4)nc3)cnn12`, the IC50 in assay [1] and in assay [2] was ≤ 10 µM each time.

On to `O=c1cc(-c2ccc3cc[nH]c3c2)[nH]c2c(-c3ccccc3)cnn12`, for which the 50% inhibitory concentration (IC50) in assay [1], in assay [2] and in assay [3] was ≤ 10 µM throughout.

`Cc1nn2c(=O)cc(-c3ccc4c(c3)OCO4)[nH]c2c1Cc1cccc(Cl)c1`: the 50% inhibitory concentration (IC50) in assay [1], in assay [2] and in assay [3] was ≤ 10 µM throughout.

For `Cc1nn2c(=O)cc(-c3ccc(C(F)(F)F)cc3)[nH]c2c1Cc1ccc(Cl)cc1`, in assay [1], the IC50 is ≥ 10 µM.

`Nc1nn2c(=O)cc(-c3ccc4[nH]nnc4c3)[nH]c2c1-c1ccccn1`: the concentration for half-maximal inhibition (IC50) in assay [1], in assay [2] and in assay [3] was ≤ 10 µM throughout.

As to `O=c1cc(-c2ccc3c(c2)OCCO3)[nH]c2c(-c3ccc(N4CCCC4)nc3)cnn12`, the IC50 in assay [1], in assay [2] and in assay [3] was ≤ 10 µM throughout.

For the compound `CCCNC(=O)c1c(N)nn2c(=O)cc(-c3ccc4[nH]ncc4c3)[nH]c12`, the IC50 in assay [1], in assay [2] and in assay [3] was ≤ 10 µM in each case.

Turning to `O=c1cc(-c2ccc3[nH]nnc3c2)[nH]c2c(-c3cccnc3)cnn12`, the concentration for half-maximal inhibition (IC50) in assay [1], in assay [2] and in assay [3] was ≤ 10 µM in each case.

As for `COc1c(-c2cc(=O)n3nc(N)c(-c4ccccn4)c3[nH]2)ccc2c1OCO2`, the IC50 in assay [1], in assay [2] and in assay [3] was ≤ 10 µM throughout.

As to `Nc1nn2c(=O)cc(-c3ccc4[nH]ncc4c3)[nH]c2c1-c1ccccn1`, the IC50 in assay [1], in assay [2] and in assay [3] was ≤ 10 µM throughout.

As to `O=c1cc(-c2ccc(Cl)cc2)[nH]c2c(-c3cccnc3)c(O)nn12`, the IC50 in assay [1] was ≥ 10 µM; in assay [2], ≤ 10 µM; in assay [3], ≤ 10 µM.

Turning to `O=c1cc(-c2cc3nn[nH]c3cc2F)[nH]c2c(-c3ccccn3)cnn12`, the IC50 in assay [1], in assay [2] and in assay [3] was ≤ 10 µM throughout.

In the case of `COc1ccc(-c2cc(=O)n3nc(C)c(Cc4ccccc4Cl)c3[nH]2)cc1`, the figures for the IC50 in assay [1] and in assay [2] were ≥ 10 µM and ≤ 10 µM, respectively.

For the compound `Cc1nn2c(=O)cc(-c3ccc4c(c3)OCO4)[nH]c2c1-c1ccccn1`, the IC50 in assay [1] was ≤ 10 µM.

Regarding `Cc1nn2c(=O)cc(-c3ccc(OC(C)C)cc3)[nH]c2c1Cc1ccc(Cl)cc1`, the concentration for half-maximal inhibition (IC50) in assay [1] is ≥ 10 µM.

As for `Cc1nn2c(=O)cc(-c3ccc4cc[nH]c4c3)[nH]c2c1Cc1ccccc1`, in assay [1], the IC50 was ≥ 10 µM.

Regarding `COc1ccc(-c2cc(=O)n3ncc(-c4ccccn4)c3[nH]2)c(OC)c1`, the IC50 in assay [2] and in assay [3] was ≤ 10 µM each time.

In the case of `O=c1cc(-c2ccc(Cl)cc2)[nH]c2c(-c3ccccn3)cnn12`, the IC50 in assay [2] and in assay [3] was ≤ 10 µM each time.

As to `Cc1nn2c(=O)cc(-c3ccc(C(N)=O)cc3)[nH]c2c1Cc1ccc(Cl)cc1`, the half-maximal inhibitory concentration (IC50) in assay [1] is ≥ 10 µM.

For the compound `O=C(NCc1ccccc1)c1cnn2c(=O)cc(-c3ccc4c(c3)OCCO4)[nH]c12`, the IC50 in assay [2] and in assay [3] was ≤ 10 µM in each case.

Turning to `O=c1cc(-c2ccc3c(c2)OCCO3)[nH]c2c(-c3ccccc3)cnn12`, the IC50 in assay [1] is ≤ 10 µM.

`O=c1cc(-c2ccc3c(c2)OCCO3)[nH]c2c(-c3ccccn3)c(O)nn12`: the IC50 in assay [2] and in assay [3] was ≤ 10 µM each time.

In the case of `COc1cccc(-c2cc(=O)n3nc(C)c(Cc4ccc(Cl)cc4)c3[nH]2)c1`, the IC50 in assay [1] is ≥ 10 µM.

On to `Cc1nn2c(=O)cc(-c3ccccc3)[nH]c2c1Cc1ccccc1`, for which the IC50 in assay [1] is ≥ 10 µM.

With `O=c1cc(-c2ccccn2)[nH]c2c(-c3ccc(F)cc3)cnn12`, the IC50 in assay [1] and in assay [3] was ≤ 10 µM throughout.

Take `O=c1cc(-c2ccc3c(c2)OCCO3)[nH]c2c(-c3cccc(F)c3)cnn12`: the IC50 in assay [1] and in assay [2] was ≤ 10 µM throughout.

For the compound `Cc1nn2c(=O)cc(-c3cccnc3)[nH]c2c1-c1ccc(F)cc1`, the half-inhibitory concentration (IC50) in assay [1] and in assay [3] was ≤ 10 µM in each case.

As for `Cc1nn2c(=O)cc(-c3ccc4c(c3)OCCO4)[nH]c2c1-c1ccccn1`, the concentration for half-maximal inhibition (IC50) in assay [1] was ≤ 10 µM.

With `O=C(c1cnn2c(=O)cc(-c3ccc4c(c3)OCCO4)[nH]c12)N1CCOCC1`, the concentration for half-maximal inhibition (IC50) in assay [2] and in assay [3] was ≤ 10 µM in each case.

Turning to `O=c1cc(-c2ccc3c(c2)OCCO3)[nH]c2c(-c3ccccc3)c(O)nn12`, the half-inhibitory concentration (IC50) in assay [2] and in assay [3] was ≤ 10 µM each time.

As to `COc1ccc(-c2cc(=O)n3nc(C)c(Cc4ccccc4)c3[nH]2)cc1OC`, in assay [1], the IC50 was ≥ 10 µM.

With `O=c1cc(-c2ccc3c(c2)OCCO3)[nH]c2c(-c3cccnc3)cnn12`, the IC50 in assay [1] is ≤ 10 µM.

`O=c1cc(-c2ccc3c(c2)OCO3)[nH]c2c(-c3ccccn3)cnn12`: the half-inhibitory concentration (IC50) in assay [1] was ≤ 10 µM.

For `COc1ccc(-c2cc(=O)n3nc(C)c(Cc4ccc(Cl)cc4)c3[nH]2)cc1OC`, the 50% inhibitory concentration (IC50) in assay [1] was ≥ 10 µM.

Regarding `Cc1nn2c(=O)cc(-c3ccccc3)[nH]c2c1Cc1ccc(Cl)cc1`, in assay [1], the IC50 is ≤ 10 µM.

With `COc1ccc(-c2cc(=O)n3ncc(-c4ccc(F)cc4)c3[nH]2)cc1`, the IC50 in assay [1] was ≤ 10 µM.

For `COC(=O)c1ccc(-c2cc(=O)n3nc(C)c(Cc4ccc(Cl)cc4)c3[nH]2)cc1`, the half-inhibitory concentration (IC50) in assay [1] was ≥ 10 µM.

For the compound `Cc1nn2c(=O)cc(-c3ccc4c(c3)CCO4)[nH]c2c1-c1ccccc1`, the 50% inhibitory concentration (IC50) in assay [1] is ≤ 10 µM.

`O=c1cc(-c2ccc3c(c2)OCCO3)[nH]c2c(-c3ccccn3)cnn12`: the concentration for half-maximal inhibition (IC50) in assay [1] was ≤ 10 µM.

(Values after ChEMBL document CHEMBL3714729, “Heterocyclic compounds for the inhibition of pask” (2012).)
